According to the supplement of paper PMC10307832:

Assays:
Assay in all cases: relative viability (nuclei count vs DMSO), 5 days (fraction); higher = more cells survive
Daporinad = compound: O=C(/C=C/c1cccnc1)NCCCCC1CCN(C(=O)c2ccccc2)CC1 [Daporinad]
Procedure, shortened: (§1)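 Five library-drug doses spaced by √10 were pinned onto vehicle-anchored 1536-well plates of lung cancer cell lines that had been kept overnight at 37 °C. Cells went 5 days without medium change, then were fixed, permeabilised and Hoechst-stained together, imaged at 4× and counted by MetaXpress. Viability is the ratio of treated-well to vehicle-well nuclei, taken as a median over plates. Plates required control CV below 25% and at least one doubling.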

R406 = compound: COc1cc(Nc2ncc(F)c(Nc3ccc4c(n3)NC(=O)C(C)(C)O4)n2)cc(OC)c1OC [R406]
Procedure, shortened: as §1

R406 + Trametinib = compound: COc1cc(Nc2ncc(F)c(Nc3ccc4c(n3)NC(=O)C(C)(C)O4)n2)cc(OC)c1OC [R406] + CC(=O)Nc1cccc(-n2c(=O)n(C3CC3)c(=O)c3c(Nc4ccc(I)cc4F)n(C)c(=O)c(C)c32)c1 [Trametinib] (partner 0.02 µM)
Procedure, shortened: (§2)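 A single step with final 0.05% Triton X-100, 1% formaldehyde and 1 ug/ml Hoechst fixed the cells and stained nuclei 5 days after treatment. Lung cancer cell lines in 1536-well plates had been treated by pin tool the day after seeding with one drug alone or a fixed anchor-drug dose plus five library-drug doses (not always all listed) in √10 steps, and nuclei were counted on 4× images. Relative viability is the ratio of nuclei in treated wells to nuclei in vehicle wells, taken as the median of duplicate plates.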

Daporinad + Navitoclax = compound: O=C(/C=C/c1cccnc1)NCCCCC1CCN(C(=O)c2ccccc2)CC1 [Daporinad] + CC1(C)CCC(c2ccc(Cl)cc2)=C(CN2CCN(c3ccc(C(=O)NS(=O)(=O)c4ccc(N[C@H](CCN5CCOCC5)CSc5ccccc5)c(S(=O)(=O)C(F)(F)F)c4)cc3)CC2)C1 [Navitoclax] (partner 0.5 µM)
Procedure, shortened: as §2

Cell Line | relative viability (Daporinad; 0.0005 µM) | relative viability (Daporinad; 0.001581 µM) | relative viability (Daporinad; 0.005 µM) | relative viability (Daporinad; 0.01581 µM) | relative viability (R406; 0.08 µM) | relative viability (R406; 0.253 µM) | relative viability (R406; 0.8 µM) | relative viability (R406; 2.53 µM) | relative viability (R406; 8 µM) | relative viability (R406 + Trametinib; first compound 0.08 µM) | relative viability (R406 + Trametinib; first compound 0.253 µM) | relative viability (R406 + Trametinib; first compound 0.8 µM) | relative viability (R406 + Trametinib; first compound 2.53 µM) | relative viability (R406 + Trametinib; first compound 8 µM) | relative viability (Daporinad + Navitoclax; first compound 0.0005 µM) | relative viability (Daporinad + Navitoclax; first compound 0.001581 µM) | relative viability (Daporinad + Navitoclax; first compound 0.005 µM) | relative viability (Daporinad + Navitoclax; first compound 0.01581 µM)
NCI-H1755 | 0.966 | 0.989 | 1.03 | 1.02 | 0.947 | 1.05 | 1.13 | 0.838 | 0.796 | 0.679 | 0.788 | 0.714 | 0.704 | 0.465 | 0.987 | 0.974 | 1.04 | 0.989
NCI-H1792 | 0.828 | 1.17 | 1.11 | 1.15 | 1 | 1.07 | 1.17 | 0.251 | 0.386 | 0.428 | 0.443 | 0.427 | 0.178 | 0.0999 | 0.702 | 0.722 | 0.534 | 0.621
NCI-H1793 | 0.801 | 0.959 | 0.984 | 1.09 | 0.731 | 1.17 | 1.13 | 0.159 | 0.279 | 0.448 | 0.537 | 0.411 | 0.422 | 0.16 | 0.453 | 0.499 | 0.38 | 0.569
NCI-H1915 | 1.01 | 1.13 | 1.07 | 1.03 | 1.01 | 1.15 | 1.05 | 0.667 | 0.835 | 0.324 | 0.334 | 0.313 | 0.268 | 0.197 | 0.805 | 0.739 | 0.765 | 0.809
NCI-H1944 | 0.921 | 1.05 | 1.07 | 1.02 | 0.932 | 1.08 | 0.986 | 0.858 | 0.783 | 0.401 | 0.453 | 0.364 | 0.385 | 0.319 | 1.08 | 1.05 | 0.981 | 1.09
NCI-H1975 | 1.05 | 0.916 | 1.01 | 0.968 | 0.848 | 1.03 | 1.02 | 0.479 | 0.385 | 0.315 | 0.307 | 0.287 | 0.112 | 0.201 | 1.28 | 1.18 | 1.06 | 1.06
NCI-H1993 | 0.881 | 0.99 | 1.05 | 1.15 | 1.01 | 1.09 | 0.921 | 0.658 | 0.599 | 0.442 | 0.542 | 0.518 | 0.679 | 0.573 | 0.877 | 0.753 | 0.982 | 1.16
NCI-H2009 | 0.918 | 1.08 | 1.07 | 0.905 | 0.975 | 1.04 | 1.11 | 0.853 | 0.376 | 0.275 | 0.275 | 0.323 | 0.213 | 0.136 | 1.17 | 1.2 | 1.22 | 0.812
NCI-H2023 | 0.982 | 1.15 | 1.09 | 0.987 | 0.902 | 1.05 | 1.12 | 0.388 | 0.241 | 0.499 | 0.562 | 0.582 | 0.286 | 0.129 | 0.995 | 1.14 | 0.958 | 0.995
NCI-H2085 | 0.984 | 1.02 | 1.08 | 1.18 | 0.99 | 1.06 | 1.1 | 0.823 | 0.736 | 0.591 | 0.634 | 0.545 | 0.498 | 0.226 | 1.17 | 1.25 | 1.23 | 1.03
NCI-H2087 | 0.906 | 1.16 | 1.22 | 1.02 | 1.05 | 1.16 | 1.23 | 0.428 | 0.851 | 0.227 | 0.218 | 0.197 | 0.194 | 0.156 | 1.05 | 0.881 | 1.03 | 0.912
NCI-H2126 | 1.02 | 0.978 | 1.03 | 1.09 | 1.05 | 1.04 | 1.07 | 0.918 | 0.849 | 0.609 | 0.535 | 0.511 | 0.519 | 0.522 | 0.914 | 0.751 | 0.845 | 0.874
NCI-H2170 | 0.923 | 1.06 | 1.03 | 1.06 | 0.962 | 0.972 | 1.06 | 0.729 | 0.892 | 0.923 | 0.99 | 1.02 | 0.647 | 0.842 | 0.619 | 0.561 | 0.637 | 0.825
NCI-H2228 | 0.925 | 0.846 | 1.24 | 0.973 | 1.1 | 1.3 | 1.15 | 0.385 | 0.298 | 0.501 | 0.503 | 0.731 | 0.0769 | 0.432 | 1.05 | 1.1 | 1.09 | 0.945
NCI-H2347 | 1.13 | 1.13 | 1.02 | 1.09 | 1.06 | 1.18 | 1.11 | 0.935 | 0.796 | 0.304 | 0.285 | 0.282 | 0.244 | 0.255 | 0.926 | 0.887 | 0.885 | 0.779
NCI-H2405 | 1.08 | 1.12 | 1.02 | 0.509 | 0.98 | 1.11 | 1.06 | 0.746 | 0.382 | 0.584 | 0.699 | 0.615 | 0.447 | 0.299 | 0.948 | 0.962 | 0.684 | 0.321
NCI-H3122 | 0.955 | 1 | 1.05 | 0.984 | 0.948 | 1 | 0.989 | 0.945 | 0.977 | 0.234 | 0.218 | 0.206 | 0.241 | 0.234 | 1.01 | 1.02 | 1.02 | 0.987
